According to US20160271178A1, “NANOPARTICLE-CONTAINING HYDROGELS” (priority 2013, published 2016):

Tested on: P. aeruginosa
Test: Bacterial suspension assay (OD measurement)
Type: cell-based
Conditions: tetracycline 10 and 20 μg/mL; 24 h
Procedure: Gels were prepared in 24-well sterile Nunc plates. 10 mM AgNO3 solution in 100 mM Tris-buffer (pH=8.5) was freshly prepared and used to dissolve the peptide to a final concentration of 10 mg/mL. The resultant solution was sonicated for 15-20 s to ensure complete dissolution of the peptide. 400 μL of the peptide solution was then aliquoted into each well and allowed to spread evenly on the surface. […] Prior to use, the plates were exposed to short-wavelength UV at 254 nm for 5 minutes to allow Ag NP formation. For the control gels, 100 mM Tris buffer without AgNO3 was used for Ac-LK6—NH2 hydrogel preparation.
50 μL of bacterial stock was inoculated overnight in 5 mL of Luria-Bertani (LB) medium (pH=7.5), with constant shaking at 300 rpm at 37° C. The log-phase bacterial solution was then diluted in LB medium to obtain an O.D. of 0.07 (at 600 nm). This was used as the starting bacterial solution (0 hr reading) and 400 μL of the solution was dispensed into each well of the 24-well plate containing the hydrogels. […] Ac-LK6—NH2 hydrogels without Ag NPs and bacteria-only solutions served as the negative controls. […] For the O.D. readings, 100 μL of the bacterial solution was transferred into a transparent 96 well Nunc plate just before measurement, to prevent the hydrogel layer from influencing absorbance measurements. […]

CN(C)[C@@H]1C(O)=C(C(N)=O)C(=O)[C@@]2(O)C(O)=C3C(=O)c4c(O)cccc4[C@@](C)(O)[C@H]3C[C@@H]12 [tetracycline, Tetracycline]
growth inhibition compared to the untreated control: about 50%
